Entries after “also recorded” stand apart in the source; their conditions may differ.
What was measured:
Assay type in all cases: cell-based, human
ET-1 mRNA in HPBMCs = test: ET-1 gene expression in HPBMCs, real-time PCR; conditions: 6 hours
Procedure: 5×10^6 HPBMCs were plated in 6-well. After 1 hour medium was removed and cells were treated with vehicle or 1 μM P38 INHIBITOR in RPMI 1640 medium. After 1 hour cells were stimulated with 10% FCS only or 10 μg/ml CRP plus 10% FCS. After 6 hours RNA was extracted from the cells and ET-1 gene expression level was determined by real-time PCR as described in the Experimental section.
Cryopreserved human peripheral blood monocytes (HPBMCs, from Biowitker, Walkersvill, Md.) were thawed and washed twice in RPMI 1640. Cells were plated in tissue culture plates and incubated in 5% CO2 at 37 C. After 1 hr media were removed and cells were treated with various treatments. After 2 to 20 hours conditioned media and/or cell lysates were collected for the analyses of secreted cytokines, protein or mRNA expression. 10 μg/ml of purified human CRP (Calbiochem, San Diego, Calif.) was used in most of the treatments. In some experiments fetal calf serum (FCS from ATCC) was added to a final concentration of 10% together with CRP. In the examples provided herein, including those assessing the effects of p38 antagonism, cells were pre-treated with SD, a p38 small molecule inhibitor (Compound 162 in Table A) for 1 hour prior to CRP treatment as described above. In a parallel series of experiments, the effect of vehicle (DMSO) was tested. For TaqMan analyses of various gene expression cells were lysed in ice-cold RLT lysis buffer (Qiagen, Valencia, Calif.) and the lysates were kept in −80° C. until the analyses. […]
(§1) RNA was extracted from the cells using Qiagen RNA extraction kit according to the manufacturer's instruction. The expression of pro-inflammatory genes IL-1β, IL-6, IL-8, TNFα, COX-2, ET-1, TF were assessed by real-time PCR. […]
(§2) Real-time RT-PCR was performed in a two-step manner. cDNA synthesis and real-time detection were carried out in a PTC-100™ Thermal Cycler (MJ Research Inc, Waltham, Mass.) and an ABI Prism™ 7700 Sequence Detection System (Applied Biosystems, Foster City, Calif.), respectively. […] Relative quantitation of gene expression was performed using the relative standard curve method. […]

[1] = test system: TNFα secretion from HPBMCs; test: TNFα secretion from HPBMCs, ELISA; conditions: 1 μM SD, 6 hours
Procedure: (§3) 5×10^6 HPBMCs were plated in 6-well. After 1 hour medium was removed and cells were treated with vehicle or 1μM p38 inhibitor in RPMI 1640 medium. After 1 hour cells were stimulated with 10% FCS only or 10 μg/ml CRP plus 10% FCS. After 6 hours conditioned medium was collected and IL-1b and TNFa levels were determined by ELISA. […] 5×10^6 HPBMCs were plated in 6-well. After I hour medium was removed and cells were treated with vehicle or […] p38 inhibitor in RPMI 1640 medium. After 1 hour cells were stimulated with 10% FCS only or 10 μg/ml CRP plus 10% FCS. After 2 hours RNA was extracted from the cells and TNFa (c) and IL-1b (d) expression levels were determined by real-time PCR as described in the Experimental section. […]
Conditioned media from the treated cells were collected (6 to 20 hrs), and the level of secreted interleukin 6 (IL-6), interleukin 1 beta (IL-1 β), tumor necrosis factor alpha (TNFα), and interleukin 8 (IL-8) was determined by ELISA according to the manufacturer's instruction (Biosource International, Camarillo, Calif.). […]
TNFα and IL-β are initial inflammatory cytokines produced when monocytes are activated during infalmmation. […] HPBMCs were incubated with either 10% FCS or CRP plus 10% FCS for 6 hours and secreted cytokines TNFα and IL-1β were measured by ELISA. […]

TNFα mRNA in HPBMCs = test: TNFα gene expression in HPBMCs, real-time PCR; conditions: 2 hours
Procedure: as §3, §1, §2

C[C@@H]1CN(Cc2ccc(F)cc2)[C@@H](C)CN1C(=O)c1cc2c(C(=O)C(=O)N(C)C)c[nH]c2cc1Cl [Compound 162]
inhibition of CRP-invoked ET-1 mRNA expression (ET-1 mRNA in HPBMCs; 1 μM SD pre-treatment, listed as SD): almost completely blocked; also recorded: almost completely inhibited | inhibition of FCS induced ET-1 mRNA (ET-1 mRNA in HPBMCs; 1 μM SD): completely inhibited | FCS induced TNFα secretion, sensitivity to p38 inhibition ([1]; 10% FCS): sensitive | inhibition of CRP-invoked TNFα secretion ([1]; CRP plus 10% FCS): strongly inhibited | inhibition of CRP augmented TNFα transcription (TNFα mRNA in HPBMCs; 1 μM SD): completely attenuated | FCS induced TNFα transcription, sensitivity to SD treatment (TNFα mRNA in HPBMCs; 10% FCS): sensitive

From patent publication US20060019971A1, “Treatment of cardiovascular disease with inhibitors of p38 kinase” (priority 2003, published 2006)
